Results: US20140249135A1, “PIM KINASE INHIBITORS AND METHODS OF THEIR USE” (NOVARTIS AG, priority 2007, published 2014)
Read-outs that look alike come from different tables or passages of the source.

What was measured:
Assay type in all cases: biochemical
[1] = target: Pim1 kinase (Homo sapiens, UniProt P11309); test: Pim1 ATP depletion assay;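 further: Luciferase-luciferin luminescence readout of residual ATP after PIM1 transfers phosphate to a peptide substrate, 40 µM ATP added, reaction run to roughly half ATP consumption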
[2] = target: Pim2 kinase (Homo sapiens, UniProt Q9P1W9); test: Pim2 ATP depletion assay;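 further: Luciferase-based luminescent readout of ATP remaining after PIM2 phosphorylates a BAD peptide, final 5 nM enzyme, 4 µM ATP, 10 µM peptide, 2.5% DMSO, run to roughly half ATP consumption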
[3] = target: Pim3 kinase (Homo sapiens, UniProt Q86V86); test: Pim3 ATP depletion assay
[4] = Pim1 ATP depletion assay, read-out: PIM1 IC50
[5] = Pim1 ATP depletion assay, read-out: IC50 (μM) PIM1

Chain of Pim2 kinase (Q9P1W9 whole entry): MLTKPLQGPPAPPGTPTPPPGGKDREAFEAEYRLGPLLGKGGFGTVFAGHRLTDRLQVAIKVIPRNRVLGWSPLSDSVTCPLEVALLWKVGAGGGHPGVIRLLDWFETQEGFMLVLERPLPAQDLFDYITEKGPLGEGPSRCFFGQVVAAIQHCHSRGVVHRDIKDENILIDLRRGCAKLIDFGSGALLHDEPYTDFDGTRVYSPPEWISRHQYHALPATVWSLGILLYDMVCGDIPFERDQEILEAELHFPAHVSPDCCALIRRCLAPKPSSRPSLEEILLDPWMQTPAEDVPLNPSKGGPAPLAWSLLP
Chain of Pim1 kinase (P11309 whole entry): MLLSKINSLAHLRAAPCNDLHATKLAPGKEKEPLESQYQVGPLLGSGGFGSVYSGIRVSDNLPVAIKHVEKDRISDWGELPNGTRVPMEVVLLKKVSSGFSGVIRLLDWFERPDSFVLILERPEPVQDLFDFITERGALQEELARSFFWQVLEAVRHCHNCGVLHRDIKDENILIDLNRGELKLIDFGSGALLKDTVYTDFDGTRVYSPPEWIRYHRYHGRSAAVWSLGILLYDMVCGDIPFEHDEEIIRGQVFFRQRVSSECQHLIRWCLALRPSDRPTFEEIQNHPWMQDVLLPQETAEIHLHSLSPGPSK

SMILES | IC50 [1, 4] | IC50 ([2]; read-out: PIM2 IC50) | IC50 ([3]; read-out: PIM3 IC50) | IC50 [1, 5] | IC50 ([2]; read-out: IC50 (μM) PIM2) | IC50 ([3]; read-out: IC50 (μM) PIM3) | IC50 [1]
CC(C)NC(=O)c1ccc(F)c(-c2ccc(N)c(C(=O)Nc3cnccc3N3CC[C@@H](O)[C@H](N)C3)n2)c1 [Example 671, 3-Amino-6-(2-fluoro-5-isopropylcarbamoyl-phenyl)-pyridine-2-carboxylic acid (3-amino-4-hydroxy-3,4,5,6-tetra-hydro-2H-[1,4′]bipyridinyl-3′-yl)-amide] | < 1 µM | < 1 µM | < 1 µM | – | – | – | –
COC1CCN(c2ccncc2NC(=O)c2nc(-c3cc(C(=O)NC(C)C)ccc3F)ccc2N)CC1N (stereo not drawn) [Example 299, 3-Amino-6-(2-fluoro-5-isopropylcarbamoyl-phenyl)-pyridine-2-carboxylic acid (3-amino-4-methoxy-3,4,5,6-tetra-hydro-2H-[1,4′]bipyridinyl-3′-yl)-amide] | – | – | – | < 1 µM | < 1 µM | < 1 µM | –
Nc1ccc(-c2ncccc2C(F)(F)F)nc1C(=O)Nc1cnccc1N1CCC[C@H](N)C1 [Example 721, 5-Amino-3′-trifluoromethyl-[2,2′]bipyridinyl-6-carboxylic acid (3-amino-3,4,5,6-tetra-hydro-2H-[1,4′]bipyridinyl-3′-yl)-amide] | < 1 µM | < 1 µM | < 1 µM | – | – | – | –
Cc1ccc(-c2ccc(N)c(C(=O)Nc3cnccc3N3CCC[C@H](N)C3)n2)nc1 [Example 725, 5-Amino-5′-methyl-[2,2′]bi-pyridinyl-6-carboxylic acid (3-amino-3,4,5,6-tetrahydro-2H-[1,4′]bipyridinyl-3′-yl)-amide] | < 1 µM | < 1 µM | < 1 µM | – | – | – | –
Nc1ccc(-c2ncccc2N)nc1C(=O)Nc1cnccc1N1CCC[C@H](N)C1 [Example 716, 5,3′-Diamino-[2,2′]bipyridinyl-6-carboxylic acid (3-amino-3,4,5,6-tetrahydro-2H-[1,4′]bi-pyridinyl-3′-yl)-amide] | < 1 µM | < 1 µM | < 1 µM | – | – | – | –
Cc1cc(-c2ccncc2NC(=O)c2nc(-c3c(F)cccc3F)ccc2N)cc(N)n1 [Example 623, 3-amino-N-(2′-amino-6′-methyl-4,4′-bipyridin-3-yl)-6-(2,6-difluorophenyl)pyridine-2-carboxamide] | < 1 µM | < 1 µM | < 1 µM | – | – | – | –
Nc1cc(-c2ccncc2NC(=O)c2cccc(-c3c(F)cccc3F)n2)nc(C(F)(F)F)n1 [Example 528, 6-(2,6-Difluoro-phenyl)-pyridine-2-carboxylic acid [4-(6-amino-2-trifluoromethyl-pyrimidin-4-yl)-pyridin-3-yl]-amide] | – | – | – | < 1 µM | < 1 µM | < 1 µM | –
Nc1cc(-c2ccncc2NC(=O)c2nc(-c3nccs3)ccc2N)nc(C(F)(F)F)n1 [Example 642, 3-amino-N-{4-[6-amino-2-(trifluoromethyl)pyrimidin-4-yl]pyridin-3-yl}-6-(1,3-thiazol-2-yl)pyridine-2-carboxamide] | < 1 µM | < 1 µM | < 1 µM | – | – | – | –
Nc1cc(-c2ccncc2NC(=O)c2cccc(-c3nccs3)n2)nc(C(F)(F)F)n1 [Example 647, N-{4-[6-amino-2-(trifluoro-methyl)pyrimidin-4-yl]-pyridin-3-yl}-6-(1,3-thiazol-2-yl)pyridine-2-carboxamide] | < 1 µM | < 1 µM | < 1 µM | – | – | – | –
Nc1ccc(-c2ccc(Cl)s2)nc1C(=O)Nc1cnccc1N1CCC[C@H](N)C1 [Example 450, 3-Amino-6-(5-chloro-thiophen-2-yl)-pyridine-2-carboxylic acid (3-amino-3,4,5,6-tetrahydro-2H-[1,4′]bipyridinyl-3′-yl)-amide] | – | – | – | < 1 µM | < 1 µM | < 1 µM | –
Nc1ccc(-c2ncccc2F)nc1C(=O)Nc1cnccc1N1CCC(O)C(N)C1 (stereo not drawn) [Example 735, 5-Amino-3′-fluoro-[2,2′]bi-pyridinyl-6-carboxylic acid (3-amino-4-hydroxy-3,4,5,6-tetra-hydro-2H-[1,4′]bipyridinyl-3′-yl)-amide] | < 1 µM | < 1 µM | < 1 µM | – | – | – | –
CC1CC(N)CN(c2ccncc2NC(=O)c2nc(-c3c(F)cccc3F)ccc2N)C1 (stereo not drawn) [Example 288, 3-Amino-6-(2,6-difluoro-phenyl)-pyridine-2-carboxylic acid (3-amino-5-methyl-3,4,5,6-tetrahydro-2H-[1,4′]bipyridinyl-3′-yl)-amide] | – | – | – | < 1 µM | < 1 µM | < 1 µM | –
NC1CC(CO)CN(c2ccncc2NC(=O)c2ccc(F)c(-c3ccccc3F)n2)C1 (stereo not drawn) [Example 289, 5-Fluoro-6-(2-fluoro-phenyl)-pyridine-2-carboxylic acid (5-amino-3-hydroxymethyl-3,4,5,6-tetrahydro-2H-[1,4′]bipyridinyl-3′-yl)-amide] | – | – | – | < 1 µM | < 1 µM | < 1 µM | –
CC(C)NC(=O)c1ccc(F)c(-c2ccc(N)c(C(=O)Nc3cnccc3N3CC[C@@H](F)[C@H](N)C3)n2)c1 [Example 253, 3-Amino-6-(2-fluoro-5-isopropylcarbamoyl-phenyl)-pyridine-2-carboxylic acid (3-amino-4-fluoro-3,4,5,6-tetra-hydro-2H-[1,4′]bipyridinyl-3′-yl)-amide] | – | – | – | < 1 µM | < 1 µM | < 1 µM | –
CCc1ccnc(-c2ccc(N)c(C(=O)Nc3cnccc3N3CCC[C@H](N)C3)n2)c1 [Example 717, 5-Amino-4′-ethyl-[2,2′]bi-pyridinyl-6-carboxylic acid (3-amino-3,4,5,6-tetrahydro-2H-[1,4′]bipyridinyl-3′-yl)-amide] | < 1 µM | < 1 µM | < 1 µM | – | – | – | –
N#CCc1cccc(-c2ccc(N)c(C(=O)Nc3cnccc3N3CCC[C@H](N)C3)n2)c1 [Example 457, 3-Amino-6-(3-cyanomethyl-phenyl)-pyridine-2-carboxylic acid (3-amino-3,4,5,6-tetrahydro-2H-[1,4′]bipyridinyl-3′-yl)-amide] | – | – | – | < 1 µM | < 1 µM | < 1 µM | –
Nc1ccc(-c2c(F)cccc2F)nc1C(=O)Nc1cnccc1N1C[C@@H](N)C[C@H](O)C1 [Example 297, 3-Amino-6-(2,6-difluoro-phenyl)-pyridine-2-carboxylic acid (3-amino-5-hydroxy-3,4,5,6-tetrahydro-2H-[1,4′]bipyridinyl-3′-yl)-amide] | – | – | – | < 1 µM | < 1 µM | < 1 µM | –

More lines, now with the values ahead:

IC50 [1, 4] | IC50 ([2]; read-out: PIM2 IC50) | IC50 ([3]; read-out: PIM3 IC50) | IC50 [1, 5] | IC50 ([2]; read-out: IC50 (μM) PIM2) | IC50 ([3]; read-out: IC50 (μM) PIM3) | IC50 [1] | SMILES
– | < 1 µM | < 1 µM | – | – | – | < 1 µM | Nc1ccc(-c2c(F)cccc2F)nc1C(=O)Nc1cnccc1N1CC[C@@H](O)[C@@H](N)C1 [Example 752, 3-Amino-6-(2,6-difluoro-phenyl)-pyridine-2-carboxylic acid (3-amino-4-hydroxy-3,4,5,6-tetra-hydro-2H-[1,4′]bipyridinyl-3′-yl)-amide]
– | – | – | < 1 µM | < 1 µM | < 1 µM | – | Nc1ccc(-c2c(F)cccc2F)nc1C(=O)Nc1cnccc1N1CCCOCC1 [Example 168, 3-Amino-6-(2,6-difluoro-phenyl)-pyridine-2-carboxylic acid (4-[1,4]oxazepan-4-yl-pyridin-3-yl)-amide]
– | – | – | < 1 µM | < 1 µM | < 1 µM | – | COc1cccc(-c2ccc(N)c(C(=O)Nc3cnccc3N3CCC[C@H](N)C3)n2)c1F [Example 471, 3-Amino-6-(2-fluoro-3-methoxy-phenyl)-pyridine-2-carboxylic acid (3-amino-3,4,5,6-tetrahydro-2H-[1,4′]bipyridinyl-3′-yl)-amide]
– | – | – | < 1 µM | < 1 µM | < 1 µM | – | CC(C)NC(=O)c1ccc(F)c(-c2ccc(N)c(C(=O)Nc3cnccc3N3CCCC4(CCNC4)C3)n2)c1 (stereo not drawn) [Example 291, 3-Amino-6-(2-fluoro-5-isopropylcarbamoyl-phenyl)-pyridine-2-carboxylic acid [4-(2,7-diaza-spiro[4.5]dec-7-yl)-pyridin-3-yl]-amide]
– | – | – | < 1 µM | < 1 µM | < 1 µM | – | CC1(O)CCCN(c2ccncc2NC(=O)c2nc(-c3ccccc3F)ccc2N)C1 (stereo not drawn) [Example 162, 3-Amino-6-(2-fluoro-phenyl)-pyridine-2-carboxylic acid (3-hydroxy-3-methyl-3,4,5,6-tetra-hydro-2H-[1,4′]bipyridinyl-3′-yl)-amide]
– | – | – | < 1 µM | < 1 µM | < 1 µM | – | CC(C)Oc1ccc(F)c(-c2ccc(N)c(C(=O)Nc3cnccc3N3CCC[C@H](N)C3)n2)c1 [Example 467, 3-Amino-6-(2-fluoro-5-isopropoxy-phenyl)-pyridine-2-carboxylic acid (3-amino-3,4,5,6-tetrahydro-2H-[1,4′]bipyridinyl-3′-yl)-amide]
< 1 µM | < 1 µM | < 1 µM | – | – | – | – | Nc1cnc(-c2ccccc2F)nc1C(=O)Nc1cnccc1N1CC[C@@H](O)[C@H](N)C1 (stereo in doubt) [Example 662, 5-Amino-2-(2-fluoro-phenyl)-pyrimidine-4-carboxylic acid (3-amino-4-hydroxy-3,4,5,6-tetrahydro-2H-[1,4′]bi-pyridinyl-3′-yl)-amide]
– | – | – | < 1 µM | 1 to 10 µM | < 1 µM | – | Nc1ccc(-c2c(F)cccc2F)nc1C(=O)Nc1cnccc1N1CCCCCCC1 [Example 167, 3-Amino-6-(2,6-difluoro-phenyl)-pyridine-2-carboxylic acid (4-azocan-1-yl-pyridin-3-yl)-amide]
– | – | – | < 1 µM | < 1 µM | < 1 µM | – | Nc1ccc(-c2ccc(F)nc2N)nc1C(=O)Nc1cnccc1N1CCC[C@H](N)C1 [Example 408, 5,2′-diamino-6′-fluoro-[2,3′]bi-pyridinyl-6-carboxylic acid ((S)-3-amino-3,4,5,6-tetrahydro-2H-[1,4′]bipyridinyl-3′-yl)-amide]
